Assay results from the OPERA property sets (Mansouri et al. 2018).
Values after ≈ are worked out from the molar mass of the structure shown.

logP	log10 OH rate constant (cm³/molecule/s)	Compound	solubility [µM]
3.07		CCCSc1ccc2[nH]c(NC(=O)OC)nc2c1	
2.45		COC(=O)c1cc2ccccc2[nH]1	
1.73		CCCC(CCC)=NNC(=N)N	
0.37		COC(=O)c1ccccc1CS(N)(=O)=O	
		O=P(OCCCl)(OCCCl)OCCCl	24500 (≈ 7000 µg/mL)
1.51		CC(C)Nc1nc(N)nc(Cl)n1	1970 (≈ 369 µg/mL)
5.3		Nc1c(OC2C=CC(N3CCCCCC3=O)=CC2)cc(O)c2c1C(=O)c1ccccc1C2=O (centres undefined)	
5.2		CC(C)c1ccccc1-c1ccccc1	
6.47		N=c1cc2n(-c3ccc(Cl)cc3)c3ccccc3nc-2cc1Nc1ccc(Cl)cc1	
3.06		NC(=O)CCCN=C(c1ccc(Cl)cc1)c1cc(F)ccc1O	
0.1		Cc1ccc(S(=O)(=O)NC(CCC(=O)NC2CCCCC2)C(=O)O)cc1 (centres undefined)	
0.84		ON=C1CCCCC1	
3.3		Cc1ccc(C(=O)CS(=O)(=O)c2ccc(C)cc2)cc1	
3.35		O=C(O)CCCC(=O)c1ccc(-c2ccccc2)cc1	
0.7		NC(=O)c1ccccc1NCCCO	
0.34		COC1=C(OC)C(=O)C=CC1=O	
	-11	CCC(C)O (centres undefined)	
		c1ccc2c(c1)oc1ccccc12	18.4 (≈ 3.1 µg/mL)
3.41		CC(C)C(C#N)c1ccc(Cl)cc1 (centres undefined)	
1.72		N#CCCN(N)c1nc2cc(C(F)(F)F)ccc2o1	
4.54		Clc1ccc(C2OC2c2ccccc2)cc1 (centres undefined)	

logP	log10 OH rate constant (cm³/molecule/s)	Compound	solubility [µM]
2.82		CC(C)(C)c1ccc2oc(N(N)CCC#N)nc2c1	
2.75		CCCCNC(=S)NCCCC	
1.92		CCCCc1oc(C)cc(=O)c1O	
2.43		C1CCC(C2CO2)CC1 (centres undefined)	
0.32		COCCNCc1cc2cc(S(N)(=O)=O)sc2s1	
2.3		CCCCCOC(C)=O	
7.4		Brc1cc(Br)c(Oc2cc(Br)c(Br)c(Br)c2)cc1Br	
3.74		COc1ccc(Cl)c(Cl)c1Cl	
1.3		COC(=O)c1ccsc1S(=O)(=O)NC(=O)Nc1nc(OC)nc(OC)n1	
0.29		COC(=O)[C@@H](N)Cc1ccc(O)cc1	
0.94		O=C(O)CCCCn1nc2ccccc2n1	
2.78		CC(C)COCC(C)C	
		C=CCN(CC=C)CC=C	18200 (≈ 2500 µg/mL)
4.8		c1ccc2sc(SN(C3CCCCC3)C3CCCCC3)nc2c1	0.163 (≈ 0.0564 µg/mL)
1.76		CCCCC(C)O (centres undefined)	
0.69		NC(=O)NCCCn1nc(-c2ccccc2)ccc1=O	
8.05		CCN(CC)CCCN=c1cc2n(-c3ccc(Cl)cc3)c3ccccc3nc-2cc1Nc1ccc(Cl)cc1	
0		CCSCCn1cnc2c(=N)n(C)c(=O)[nH]c21	
3.79		Cc1ccc(C(C)C)c(OCCN(C)C)c1	
0.28		CCOC(=O)[C@@H](N)Cc1ccc(O)c(O)c1	
3.4		COc1ncnc2c1ncn2C1OC(COC(=O)C(C)(C)C)C(O)C1OC(=O)C(C)(C)C (centres undefined)	

logP	log10 OH rate constant (cm³/molecule/s)	Compound	solubility [µM]
4.83		CC1=CCC2CC1C2(C)C (centres undefined)	
1.28		CNS(=O)(=O)c1ccc(C)cc1	
0.57		OCCCNc1ccccc1	
3.27		Cc1cc(O)cc(C)c1Cl	
-1.2		CNC[C@H](O)c1ccc(O)c(O)c1	
4.05		O=C(c1ccc(Cl)cc1)c1cc(F)ccc1O	
1.5		O=C(OCn1ncc2c(=O)[nH]cnc21)c1ccccc1	
1.05		COc1c(O)cc(C)c(O)c1OC	
0.26		O=C(O)/C=C/C(=O)c1cccnc1	
2.25		CC(CCC(=O)NCC(=O)O)C1CCC2C3CCC4CC(O)CCC4(C)C3CC(O)C12C (centres undefined)	
2.23		Cc1ccccc1OCCN(C)C	
-1.69		OCC(CO)(CO)CO	
0		C=CC(=O)NCCCN(C)C	
		Nc1ccc(Cc2ccc(N)c(Cl)c2)cc1Cl	52 (≈ 13.9 µg/mL)
-1.75		OCCOCCOCCO	
		c1ccc2c(c1)ccc1ccccc12	6.45 (≈ 1.15 µg/mL)
1.55		CN(C)c1cnn(-c2ccccc2)c(=O)c1Cl	
2.5		OCCOc1cccc2ccccc12	
1.21		OC(CNC1CCCCC1Br)Cn1ccnc1 (centres undefined)	

Compound	logP	log10 OH rate constant (cm³/molecule/s)	solubility [µM]
O=P(N1CCCC1)(N1CCCC1)N1CCCC1	1.67		
O=C1CCC(c2cccnc2)N1 (centres undefined)	-0.3		
O=[N+]([O-])c1cc(Cl)cc(Cl)c1	3.09		
CCO[C@H]1O[C@@H]2OC3(C)CC[C@H]4[C@H](C)CC[C@@H]([C@H]1C)[C@@]24OO3	3.89		
OCC1CO1 (centres undefined)	-0.95		
CC(C)(C)[C@@H](O)[C@H](Cc1ccc(Cl)cc1Cl)n1cncn1	3.8		
Clc1cccc2c1Oc1c(Cl)c(Cl)c(Cl)c(Cl)c1O2	6.5		
CN1CC=C(c2ccc(N)cc2)CC1	1.48		
CC(C)CN(CC(C)C)N=O	2.34		
CN1CC=C(c2ccc(Cl)cc2)CC1	3.32		
Cc1ccc(Cl)cc1[N+](=O)[O-]	3.05		
Clc1ccc(Cl)c(NC2=NCCN2)c1Cl	2.46		
CC(C)N(C(=O)SCC(Cl)=CCl)C(C)C	4.49		
CC(O)C#N (centres undefined)	-0.94		
CC(C)CN=C=S	2.82		
CCOC1OC2OC3(C)CC(O)C4C(C)CCC(C1C)C24OO3 (centres undefined)	2.7		
COP(=S)(OC)Oc1ccc(SC)cc1	3.74		
c1ccc2nc3ccc4ccccc4c3cc2c1	4.48		
Oc1ccc(Cl)cc1Cc1ccccc1	3.6		681 (≈ 149 µg/mL)
CCOC1OC2OC3(C)CC(OC4OC(C(=O)O)C(O)C(O)C4O)C4C(C)CCC(C1C)C24OO3 (centres undefined)	1.73		
